Test results: US10759781B2, “Substituted guanidine derivatives” (UBE INDUSTRIES, LTD., priority 2015, dated 2020)
Counter-ions that a name gives are not always drawn.

Columns and labels:
Rat Plasma VAP-1 = target: T1, Rat Plasma VAP-1 (Rattus norvegicus, UniProt O08590); experiment: (Ex vivo) rat plasma VAP-1 inhibition test after oral administration of the compound; format: in vivo; conditions: 3 hours after oral administration, SD male rats, read-out: inhibition ratio (plasma VAP-1, ex vivo)
T1 construct: from tissue; host or cells: plasma of SD male rats (7-12 weeks old) after oral dosing
T1 sequence (O08590 28-763 limits assumed): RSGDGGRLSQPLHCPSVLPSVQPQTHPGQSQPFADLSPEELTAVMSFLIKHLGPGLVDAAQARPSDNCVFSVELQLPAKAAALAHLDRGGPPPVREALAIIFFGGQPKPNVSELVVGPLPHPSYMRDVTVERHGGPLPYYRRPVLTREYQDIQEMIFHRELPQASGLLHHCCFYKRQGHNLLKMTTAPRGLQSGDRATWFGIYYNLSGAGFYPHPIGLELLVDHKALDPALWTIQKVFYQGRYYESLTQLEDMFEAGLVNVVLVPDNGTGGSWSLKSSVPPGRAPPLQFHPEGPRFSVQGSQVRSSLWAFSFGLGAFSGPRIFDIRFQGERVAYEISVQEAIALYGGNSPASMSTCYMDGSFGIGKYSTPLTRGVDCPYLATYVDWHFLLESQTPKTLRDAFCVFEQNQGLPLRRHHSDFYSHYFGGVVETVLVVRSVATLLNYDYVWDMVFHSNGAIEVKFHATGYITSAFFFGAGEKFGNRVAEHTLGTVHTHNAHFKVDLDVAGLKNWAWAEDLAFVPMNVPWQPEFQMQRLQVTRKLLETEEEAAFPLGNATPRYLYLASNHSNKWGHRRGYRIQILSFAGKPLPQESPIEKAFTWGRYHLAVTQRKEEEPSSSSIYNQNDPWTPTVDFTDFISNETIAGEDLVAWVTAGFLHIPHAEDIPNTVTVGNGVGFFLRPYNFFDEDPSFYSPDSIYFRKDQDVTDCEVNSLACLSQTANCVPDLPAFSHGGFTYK
Experimental: (Ex Vivo) Rat Plasma VAP-1 Inhibition Test after Oral Administration of the Compound
The compound was orally administered (0.3-10 mg/kg) to 7-12 week old SD male rats in the non-fasting state. Under anesthesia, the blood was collected in heparin tubes from the jugular vein before the administration and 3, 8 and 24 hours after the administration. The blood was centrifuged at 14000 rpm for 10 minutes to get plasma. The VAP-1 enzyme activity in the plasma was measured by radiochemical enzyme assay.
The radiochemical enzyme assay was conducted by modifying the method of P. H. Yu et al. (Diabetologia 40 1243 (1997)). ^14C-benzylamine (2.5 μM) was added to the obtained plasma, and was incubated at 37° C. for 3 hours. The reaction was terminated by the addition of 100 μL of 2 M citric acid solution to the reaction solution. The oxidative product was extracted using a toluene/ethyl acetate mixture and the radioactivity was measured with a liquid scintillation counter. The inhibition ratio of the compound was calculated using the following equation. Inhibition ratio={1−[Plasma VAP-1 activity after administration of the compound]/[Plasma VAP-1 activity before administration]}×100

Human VAP-1 enzyme = target: T2, Human VAP-1 enzyme (Homo sapiens, UniProt Q16853); experiment: Human VAP-1 enzyme inhibition test; format: biochemical; conditions: 1 h; compound 30 nM; 14C-benzylamine 100 μM; read-out: inhibition ratio (human VAP-1 enzyme)
T2 construct: purchased R&D Systems, Inc
T2 sequence (Q16853 1-763): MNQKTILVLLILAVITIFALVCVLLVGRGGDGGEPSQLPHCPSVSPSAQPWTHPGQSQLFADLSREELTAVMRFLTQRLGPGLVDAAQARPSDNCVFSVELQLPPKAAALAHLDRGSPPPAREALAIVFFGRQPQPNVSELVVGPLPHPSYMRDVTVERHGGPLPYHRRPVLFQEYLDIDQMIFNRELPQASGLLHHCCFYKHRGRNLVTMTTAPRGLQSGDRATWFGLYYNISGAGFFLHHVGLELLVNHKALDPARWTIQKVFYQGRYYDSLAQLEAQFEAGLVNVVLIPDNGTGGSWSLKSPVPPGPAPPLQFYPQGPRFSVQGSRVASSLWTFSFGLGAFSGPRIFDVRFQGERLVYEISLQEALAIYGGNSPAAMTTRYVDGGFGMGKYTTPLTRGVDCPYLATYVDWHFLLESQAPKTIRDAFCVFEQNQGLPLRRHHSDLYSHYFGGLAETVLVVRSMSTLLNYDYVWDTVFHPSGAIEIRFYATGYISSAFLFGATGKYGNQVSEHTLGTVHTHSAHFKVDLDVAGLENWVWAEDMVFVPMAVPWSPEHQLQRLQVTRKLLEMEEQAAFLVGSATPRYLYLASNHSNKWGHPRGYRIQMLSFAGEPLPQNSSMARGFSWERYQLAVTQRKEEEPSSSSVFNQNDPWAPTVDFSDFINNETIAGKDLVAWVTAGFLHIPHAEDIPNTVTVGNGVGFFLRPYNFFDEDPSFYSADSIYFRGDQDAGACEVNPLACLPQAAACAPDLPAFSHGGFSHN
Summary of the method: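 Recombinant human VAP-1 pre-incubated 20 min at room temperature with compound in DMSO, then reacted with 14C-benzylamine (100 μM final) 1 h at 37 °C. Citric acid stop; oxidized product extracted into toluene/ethyl acetate and counted by liquid scintillation. Inhibition ratio relative to DMSO-only activity.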

Structure (SMILES)	inhibition in vivo at 0.3 mg/kg (Rat Plasma VAP-1)	inhibition at 0.03 µM (Human VAP-1 enzyme)
N=C(N)NC(=O)OCc1cccc(-c2cnc(N3CCC(=NOCC(O)CO)CC3)nc2)c1F (centres unmarked) [Example 99, 3-(2-{4-[(2,3-Dihydroxypropoxy)imino]piperidin-1-yl}pyrimidin-5-yl)-2-fluorobenzyl carbamimidoylcarbamate]	≥ 50%	≥ 50%
COC(CO)CON=C1CN(c2ncc(-c3cccc(COC(=O)NC(=N)N)c3F)cn2)C1 (centres unmarked) [Example 101, 2-Fluoro-3-(2-{3-[(3-hydroxy-2-methoxypropoxy)imino]azetidin-1-yl}pyrimidin-5-yl)benzyl carbamimidoylcarbamate]	≥ 50%	≥ 50%
N=C(N)NC(=O)OCc1cccc(-c2cnc(N3CCC(=NO)CC3)nc2)c1F [Example 105, 2-Fluoro-3-{2-[4-(hydroxyimino)piperidin-1-yl]pyrimidin-5-yl}benzyl carbamimidoylcarbamate hydrochloride]	≥ 50%	≥ 50%
N=C(N)NC(=O)OCc1cccc(-c2cnc(N3CCC(=NOCCC(N)=O)CC3)nc2)c1F [Example 150, 3-(2-{4-[(3-Amino-3-oxopropoxy)imino]piperidin-1-yl}pyrimidin-5-yl)-2-fluorobenzyl carbamimidoylcarbamate]	≥ 50%	≥ 50%
CNC(=O)CCON=C1CCN(c2ncc(-c3cccc(COC(=O)NC(=N)N)c3F)cn2)CC1 [Example 151, 2-Fluoro-3-[2-(4-{[3-(methylamino)-3-oxopropoxy]imino}piperidin-1-yl)pyrimidin-5-yl]benzyl carbamimidoylcarbamate]	≥ 50%	≥ 50%
N=C(N)NC(=O)OCc1cccc(-c2cnc(N3CCC(=NOCCCC(=O)O)CC3)nc2)c1F [Example 153, 4-[({1-[5-(3-{[(Carbamimidoylcarbamoyl)oxy]methyl}-2-fluorophenyl)pyrimidin-2-yl]piperidin-4-ylidene}amino)oxy]butanoic acid]	≥ 50%	≥ 50%
CN(C)C(=O)CCON=C1CCN(c2ncc(-c3cccc(COC(=O)NC(=N)N)c3F)cn2)CC1 [Example 154, 3-[2-(4-{[3-(Dimethylamino)-3-oxopropoxy]imino}piperidin-1-yl)pyrimidin-5-yl]-2-fluorobenzyl carbamimidoylcarbamate]	≥ 50%	≥ 50%
CC(=O)NCCON=C1CCN(c2ncc(-c3cccc(COC(=O)NC(=N)N)c3F)cn2)CC1 [Example 155, 3-(2-{4-[(2-Acetamidoethoxy)imino]piperidin-1-yl}pyrimidin-5-yl)-2-fluorobenzyl carbamimidoylcarbamate]	≥ 50%	≥ 50%
CC(=O)N(C)CCON=C1CCN(c2ncc(-c3cccc(COC(=O)NC(=N)N)c3F)cn2)CC1 [Example 156, 2-Fluoro-3-[2-(4-{[2-(N-methylacetamido)ethoxy]imino}piperidin-1-yl)pyrimidin-5-yl]benzyl carbamimidoylcarbamate]	≥ 50%	≥ 50%
CS(=O)(=O)NCCON=C1CCN(c2ncc(-c3cccc(COC(=O)NC(=N)N)c3F)cn2)CC1 [Example 159, 2-Fluoro-3-[2-(4-{[2-(methylsulfonamido)ethoxy]imino}piperidin-1-yl)pyrimidin-5-yl]benzyl carbamimidoylcarbamate]	≥ 50%	≥ 50%
N#CCCON=C1CCN(c2ncc(-c3cccc(COC(=O)NC(=N)N)c3F)cn2)CC1 [Example 165, 3-(2-{4-[(2-Cyanoethoxy)imino]piperidin-1-yl}pyrimidin-5-yl)-2-fluorobenzyl carbamimidoylcarbamate]	≥ 50%	≥ 50%
N#CCCCON=C1CCN(c2ncc(-c3cccc(COC(=O)NC(=N)N)c3F)cn2)CC1 [Example 166, 3-(2-{4-[(3-Cyanopropoxy)imino]piperidin-1-yl}pyrimidin-5-yl)-2-fluorobenzyl carbamimidoylcarbamate]	≥ 50%	≥ 50%
CS(=O)(=O)CCON=C1CCN(c2ncc(-c3cccc(COC(=O)NC(=N)N)c3F)cn2)CC1 [Example 167, 2-Fluoro-3-[2-(4-{[2-(methylsulfonyl)ethoxy]imino}piperidin-1-yl)pyrimidin-5-yl]benzyl carbamimidoylcarbamate]	≥ 50%	≥ 50%
CS(=O)(=O)CCCON=C1CCN(c2ncc(-c3cccc(COC(=O)NC(=N)N)c3F)cn2)CC1 [Example 168, 2-Fluoro-3-[2-(4-{[3-(methylsulfonyl)propoxy]imino}piperidin-1-yl)pyrimidin-5-yl]benzyl carbamimidoylcarbamate]	≥ 50%	≥ 50%
Cn1ccc(CON=C2CCN(c3ncc(-c4cccc(COC(=O)NC(=N)N)c4F)cn3)CC2)n1 [Example 169, 2-Fluoro-3-[2-(4-{[(1-methyl-1H-pyrazol-3-yl)methoxy]imino}piperidin-1-yl)pyrimidin-5-yl]benzyl carbamimidoylcarbamate]	≥ 50%	≥ 50%
N=C(N)NC(=O)OCc1cccc(-c2cnc(N3CCC(=NOCc4cc[nH]n4)CC3)nc2)c1F [Example 171, 3-[2-(4-{[(1H-pyrazol-3-yl)methoxy]imino}piperidin-1-yl)pyrimidin-5-yl]-2-fluorobenzyl carbamimidoylcarbamate]	≥ 50%	≥ 50%
N=C(N)NC(=O)OCc1cccc(-c2cnc(N3CCC(=NOCc4cn[nH]c4)CC3)nc2)c1F [Example 173, 3-[2-(4-{[(1H-pyrazol-4-yl)methoxy]imino}piperidin-1-yl)pyrimidin-5-yl]-2-fluorobenzyl carbamimidoylcarbamate]	≥ 50%	≥ 50%
Cn1cc(CON=C2CCN(c3ncc(-c4cccc(COC(=O)NC(=N)N)c4F)cn3)CC2)cn1 [Example 174, 2-Fluoro-3-[2-(4-{[(1-methyl-1H-pyrazol-4-yl)methoxy]imino}piperidin-1-yl)pyrimidin-5-yl]benzyl carbamimidoylcarbamate]	≥ 50%	≥ 50%
N=C(N)NC(=O)OCc1cccc(-c2cnc(N3CCC(=NOCCn4cccn4)CC3)nc2)c1F [Example 175, 3-[2-(4-{[2-(1H-pyrazol-1-yl)ethoxy]imino}piperidin-1-yl)pyrimidin-5-yl]-2-fluorobenzyl carbamimidoylcarbamate]	≥ 50%	≥ 50%
